Assay results published in ChEMBL document CHEMBL1201862, “PubChem BioAssay data set” (2004).
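48-hour exposure; five concentrations; linearly interpolated endpoints. GI50 marks 50% less growth.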 The source made the active and inactive calls. Rule as the data show it: active = GI50 up to about 1.1 µM and inactive = higher. Where a SMILES comes first, the peptide text is derived from it. The star is where a group is joined. Cbz = O=C(OCc1ccccc1)*; Boc = CC(C)(C)OC(=O)*; tBu = CC(C)(C)*

Assays:
Assay in all cases: NCI-60 cell line screen, 48 h
A549 = tested on: A549
COLO 205 = tested on: COLO 205
Hs-578T = tested on: Hs-578T
MDA-MB-435 = tested on: MDA-MB-435
MOLT-4 = tested on: MOLT-4
Malme-3M = tested on: Malme-3M
NCI-H226 = tested on: NCI-H226
NCI-H460 = tested on: NCI-H460
NCI-H522 = tested on: NCI-H522
OVCAR-3 = tested on: OVCAR-3
OVCAR-8 = tested on: OVCAR-8
SF-268 = tested on: SF-268
SF-295 = tested on: SF-295
SK-OV-3 = tested on: SK-OV-3
SNB-19 = tested on: SNB-19
SNB-75 = tested on: SNB-75
U-251 = tested on: U-251
UACC-62 = tested on: UACC-62
BT-549 = tested on: BT-549

| SMILES | GI50 (A549) | GI50 (COLO 205) | GI50 (Hs-578T) | GI50 (MDA-MB-435) | GI50 (MOLT-4) | GI50 (Malme-3M) | GI50 (NCI-H226) | GI50 (NCI-H460) | GI50 (NCI-H522) | GI50 (OVCAR-3) | GI50 (OVCAR-8) | GI50 (SF-268) | GI50 (SF-295) | GI50 (SK-OV-3) | GI50 (SNB-19) | GI50 (SNB-75) | GI50 (U-251) | GI50 (UACC-62) | GI50 (BT-549) |
| --- | --- | --- | --- | --- | --- | --- | --- | --- | --- | --- | --- | --- | --- | --- | --- | --- | --- | --- | --- |
| O=[N+]([O-])/C(Cl)=C(\Nc1ccccc1)C(Cl)=C(Cl)Cl | 32.7 µM (inactive) | 19.5 µM (inactive) | 34.3 µM (inactive) | 18.5 µM (inactive) | 33.3 µM (inactive) | 18 µM (inactive) | 26.5 µM (inactive) | 39.4 µM (inactive) | 42.7 µM (inactive) | 18.2 µM (inactive) | 23.5 µM (inactive) | 32.1 µM (inactive) | 33 µM (inactive) | 43.7 µM (inactive) | 33.5 µM (inactive) | 2.19 µM (inactive) | 43.1 µM (inactive) | 26.2 µM (inactive) | – |
| CCOP(=O)(CC(=O)C1CC1)OCC | > 100 µM (inactive) | > 100 µM (inactive) | > 100 µM (inactive) | – | > 100 µM (inactive) | > 100 µM (inactive) | > 100 µM (inactive) | > 100 µM (inactive) | > 100 µM (inactive) | – | > 100 µM (inactive) | > 100 µM (inactive) | > 100 µM (inactive) | > 100 µM (inactive) | > 100 µM (inactive) | > 100 µM (inactive) | > 100 µM (inactive) | > 100 µM (inactive) | > 100 µM (inactive) |
| CCCCCC[C@H]1CC(=O)C2CCCC[C@@]23CC[C@H](CCl)N13.CCCCCC[C@H]1CC(=O)C2CCCC[C@@]23C[C@H](Cl)CN13 (some centres undefined) | 37 µM (inactive) | 10 µM (inactive) | 8.53 µM (inactive) | 57.8 µM (inactive) | 10 µM (inactive) | 55.3 µM (inactive) | – | 98.2 µM (inactive) | 17.9 µM (inactive) | 25.1 µM (inactive) | 25.4 µM (inactive) | 65.2 µM (inactive) | 51.2 µM (inactive) | > 100 µM (inactive) | 37.9 µM (inactive) | 27.8 µM (inactive) | 29.6 µM (inactive) | 48.1 µM (inactive) | – |
| CCn1c(-c2cc3ccccc3cc2OC(C)=O)n[nH]c1=S | – | – | 15.2 µM (inactive) | 23.3 µM (inactive) | 18.7 µM (inactive) | – | 38.6 µM (inactive) | 24.7 µM (inactive) | 16.1 µM (inactive) | 23.7 µM (inactive) | 38.4 µM (inactive) | 24.9 µM (inactive) | 23.4 µM (inactive) | 50.7 µM (inactive) | – | – | 20.2 µM (inactive) | – | – |
| NC(N)=NCc1ccc2c(c1)OCO2 | > 100 µM (inactive) | – | > 100 µM (inactive) | 73.1 µM (inactive) | > 100 µM (inactive) | 31.1 µM (inactive) | – | > 100 µM (inactive) | > 100 µM (inactive) | 97.3 µM (inactive) | – | > 100 µM (inactive) | 67 µM (inactive) | > 100 µM (inactive) | > 100 µM (inactive) | > 100 µM (inactive) | > 100 µM (inactive) | > 100 µM (inactive) | – |
| CCOC(=O)C1=C(OS(=O)(=O)C(F)(F)F)CCCC1 | > 100 µM (inactive) | > 100 µM (inactive) | > 100 µM (inactive) | > 100 µM (inactive) | > 100 µM (inactive) | > 100 µM (inactive) | > 100 µM (inactive) | > 100 µM (inactive) | > 100 µM (inactive) | > 100 µM (inactive) | > 100 µM (inactive) | > 100 µM (inactive) | > 100 µM (inactive) | > 100 µM (inactive) | > 100 µM (inactive) | > 100 µM (inactive) | > 100 µM (inactive) | > 100 µM (inactive) | – |
| CC(OC(C)(C)C)C(NC(=O)C(CCCCNC(=O)OC(C)(C)C)NC(=O)C(Cc1c[nH]c2ccccc12)NC(=O)C(Cc1ccccc1)NC(=O)OCc1ccccc1)C(=O)NC(Cc1ccccc1)C(=O)O (centres undefined) (Cbz-FWK(Boc)T(tBu)F-OH; configuration not given here) | > 100 µM (inactive) | 36.9 µM (inactive) | 0.9 µM (active) | 40.5 µM (inactive) | 28.1 µM (inactive) | > 100 µM (inactive) | 37.3 µM (inactive) | > 100 µM (inactive) | 27.9 µM (inactive) | 32.1 µM (inactive) | 95.1 µM (inactive) | 45.7 µM (inactive) | 76.7 µM (inactive) | 39.5 µM (inactive) | 37.7 µM (inactive) | 15.7 µM (inactive) | 37.9 µM (inactive) | 21 µM (inactive) | – |
| CSc1ccccc1NC1=NCCO1 | > 100 µM (inactive) | > 100 µM (inactive) | > 100 µM (inactive) | > 100 µM (inactive) | > 100 µM (inactive) | > 100 µM (inactive) | > 100 µM (inactive) | > 100 µM (inactive) | > 100 µM (inactive) | > 100 µM (inactive) | > 100 µM (inactive) | > 100 µM (inactive) | > 100 µM (inactive) | – | > 100 µM (inactive) | – | > 100 µM (inactive) | > 100 µM (inactive) | – |
| O=C1OC(c2ccccc2)N(C(=O)c2ccccc2)C1Cc1ccc(OCc2ccccc2)cc1 (centres undefined) | 80.2 µM (inactive) | > 100 µM (inactive) | 35.6 µM (inactive) | > 100 µM (inactive) | – | – | > 100 µM (inactive) | 60 µM (inactive) | – | – | 94.8 µM (inactive) | 10.1 µM (inactive) | – | > 100 µM (inactive) | > 100 µM (inactive) | 15.7 µM (inactive) | > 100 µM (inactive) | 8.11 µM (inactive) | – |
| COc1ccc(NCn2nc(CCCCCCCCc3nn(CNc4ccc(OC)cc4)c(=S)o3)oc2=S)cc1 | > 100 µM (inactive) | > 100 µM (inactive) | – | > 100 µM (inactive) | > 100 µM (inactive) | > 100 µM (inactive) | > 100 µM (inactive) | > 100 µM (inactive) | > 100 µM (inactive) | – | – | > 100 µM (inactive) | > 100 µM (inactive) | > 100 µM (inactive) | > 100 µM (inactive) | > 100 µM (inactive) | > 100 µM (inactive) | > 100 µM (inactive) | > 100 µM (inactive) |
| CC(NC(=O)C(N)CC(=O)O)C(=O)OC12CC3CC(CC(C3)C1)C2 (centres undefined) | > 100 µM (inactive) | > 100 µM (inactive) | > 100 µM (inactive) | > 100 µM (inactive) | > 100 µM (inactive) | – | – | > 100 µM (inactive) | > 100 µM (inactive) | – | > 100 µM (inactive) | > 100 µM (inactive) | – | > 100 µM (inactive) | > 100 µM (inactive) | > 100 µM (inactive) | > 100 µM (inactive) | > 100 µM (inactive) | – |
| c1ccc2c(c1)SCCCS2 | > 100 µM (inactive) | > 100 µM (inactive) | – | > 100 µM (inactive) | > 100 µM (inactive) | – | – | > 100 µM (inactive) | > 100 µM (inactive) | > 100 µM (inactive) | > 100 µM (inactive) | > 100 µM (inactive) | > 100 µM (inactive) | > 100 µM (inactive) | > 100 µM (inactive) | > 100 µM (inactive) | > 100 µM (inactive) | > 100 µM (inactive) | > 100 µM (inactive) |
| CC(C)(Cc1ccccc1)Cc1cc(O)ccc1O | 23.7 µM (inactive) | 19.2 µM (inactive) | – | 17.2 µM (inactive) | 14.8 µM (inactive) | 16.8 µM (inactive) | 33.8 µM (inactive) | 16.6 µM (inactive) | 4.93 µM (inactive) | 11.8 µM (inactive) | 17.2 µM (inactive) | 13.9 µM (inactive) | 18 µM (inactive) | 24.7 µM (inactive) | 17.7 µM (inactive) | 23 µM (inactive) | 15.2 µM (inactive) | 23.7 µM (inactive) | 16.3 µM (inactive) |
| O[C@@]1(C#Cc2ccc3c(c2)OCO3)CCC[C@H]1NCc1ccccc1 | 31.3 µM (inactive) | 18.3 µM (inactive) | 21.2 µM (inactive) | 21 µM (inactive) | 15.9 µM (inactive) | 15.2 µM (inactive) | 15.9 µM (inactive) | 24.7 µM (inactive) | 15.3 µM (inactive) | 20.4 µM (inactive) | 22.8 µM (inactive) | 36.7 µM (inactive) | 19.8 µM (inactive) | 35.7 µM (inactive) | 22.5 µM (inactive) | 27.8 µM (inactive) | 22.9 µM (inactive) | 16.9 µM (inactive) | – |
| CO/C(=N\N=C\c1ccc(C(F)(F)F)cc1)c1ccncc1 | > 10 µM (inactive) | > 10 µM (inactive) | – | > 10 µM (inactive) | > 10 µM (inactive) | > 10 µM (inactive) | > 10 µM (inactive) | > 10 µM (inactive) | > 10 µM (inactive) | > 10 µM (inactive) | > 10 µM (inactive) | > 10 µM (inactive) | > 10 µM (inactive) | – | > 10 µM (inactive) | – | > 10 µM (inactive) | – | > 10 µM (inactive) |
| N#Cc1nnc2c3c(-c4ccc(Cl)cc4)c(C#N)c(O)nc3nn2c1N | 21.1 µM (inactive) | 11.7 µM (inactive) | 3.4 µM (inactive) | 8.69 µM (inactive) | 2.62 µM (inactive) | 14.4 µM (inactive) | 9.55 µM (inactive) | 9.14 µM (inactive) | 1.62 µM (inactive) | 3.27 µM (inactive) | 4.92 µM (inactive) | 3.26 µM (inactive) | 5.3 µM (inactive) | 4.61 µM (inactive) | 3.25 µM (inactive) | – | 1.28 µM (inactive) | 1.85 µM (inactive) | – |
| NC(=O)C1Cc2cc3c(cc21)OCO3 (centres undefined) | > 100 µM (inactive) | > 100 µM (inactive) | > 100 µM (inactive) | – | – | > 100 µM (inactive) | > 100 µM (inactive) | > 100 µM (inactive) | > 100 µM (inactive) | > 100 µM (inactive) | > 100 µM (inactive) | > 100 µM (inactive) | > 100 µM (inactive) | > 100 µM (inactive) | > 100 µM (inactive) | > 100 µM (inactive) | – | > 100 µM (inactive) | > 100 µM (inactive) |
